In publication PMC5464344, “Analgesic and anti‐inflammatory properties of novel, selective, and potent EP4 receptor antagonists” (Pharmacology Research & Perspectives, 2017):

Legend:
[1] = system: female Lewis rats, collagen induced arthritis; experiment: Type-II CIA model of inflammation and autoimmunity; type: in vivo; conditions: rat CIA
Experimental: (§1) For the monoiodoacetate (MIA) and adjuvant induced arthritis (AIA) studies, male Lewis rats (Envigo, Indianapolis, IN) of approximately 8 weeks of age at the time of disease induction were used. For collagen induced arthritis studies (CIA) female Lewis rats (Charles River) weighing 150–170 g were used. Rats were housed in groups of 2 or 3 per cage and maintained in a constant temperature, and on a 12 h light/12 h dark cycle. Animals had free access to food and water at all times except during data collection.
On day 1 of the study ankle widths are measured across the joint (left side to right side) at the thickest point with calipers and rats immunized intradermally near the base of the tail with 0.4 mL of 1 mg/mL type II collagen (Elastin Products) emulsified with incomplete Freund's adjuvant (Sigma Aldrich). A second booster injection booster of 0.4 mL of the collagen emulsion was given on day 8 of the study. Ankle widths were measured on day 8 before the collagen injection and every 2–3 days thereafter until study end. On day 11 rats were randomized into five groups of eight animals based on inflammation (redness and/or swelling) in their hind paws and body weight. Rats were then dosed with vehicle (10% Acacia plus 0.05% antifoam) and compound 3 at doses of 3, 10, and 30 mg/kg. Prednisolone was included at a dose of 10 mg/kg as a positive control. Dosing was by oral gavage once daily for seventeen days at a dose volume of 5 mL/kg. On day 28 rats were euthanized and hind paws and knee joints collected for histology. Ankles and knees were fixed in neutral buffered formalin, decalcified, embedded in paraffin, and sectioned according to standard histological methodology and the joints were then scored by a pathologist using published scoring criteria (Bendele 2001; Levine et al. 2014).

COX2 (h) = target: T1, COX2 (h) (Homo sapiens, UniProt P35354); experiment: Off-target activity (CEREP), COX2; type: biochemical; conditions: 10 μmol/L; obtained at CEREP (Blanco et al. 2016c); read-out: % Inh COX2 (h)
T1 construct: CEREP (contract laboratory that ran the assay)
T1 sequence (P35354 18-604): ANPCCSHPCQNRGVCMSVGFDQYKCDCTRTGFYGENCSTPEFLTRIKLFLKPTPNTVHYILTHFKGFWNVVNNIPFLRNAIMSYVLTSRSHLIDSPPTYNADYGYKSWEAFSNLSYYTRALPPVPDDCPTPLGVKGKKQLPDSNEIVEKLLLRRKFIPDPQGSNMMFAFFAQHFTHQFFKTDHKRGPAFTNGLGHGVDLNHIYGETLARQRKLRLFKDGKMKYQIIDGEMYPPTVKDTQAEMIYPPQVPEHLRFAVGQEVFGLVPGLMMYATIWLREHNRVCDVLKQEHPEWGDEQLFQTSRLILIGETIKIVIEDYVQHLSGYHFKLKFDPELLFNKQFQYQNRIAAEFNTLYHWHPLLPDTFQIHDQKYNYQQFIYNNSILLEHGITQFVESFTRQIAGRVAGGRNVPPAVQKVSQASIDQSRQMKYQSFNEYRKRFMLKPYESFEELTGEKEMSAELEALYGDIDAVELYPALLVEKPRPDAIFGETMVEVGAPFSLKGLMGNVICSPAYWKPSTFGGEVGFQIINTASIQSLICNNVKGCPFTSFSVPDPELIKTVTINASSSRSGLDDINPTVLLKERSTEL
Excerpt: (§2) The off‐target activity related to prostaglandin pathway (Table 2) were obtained at CEREP (Blanco et al. 2016c).

COXl (h) = target: T2, COXl (h) (Homo sapiens, UniProt P23219); experiment: Off-target activity (CEREP), COX1; type: biochemical; conditions: 10 μmol/L; obtained at CEREP (Blanco et al. 2016c); Compound 1 value footnoted: non-specific assay interference
T2 construct: CEREP (contract laboratory that ran the assay)
Excerpt: as §2

[2] = target: T3, TP (TXA2/PGH2) (h); antagonist effect (Homo sapiens, UniProt P21731); experiment: Off-target activity (CEREP), TP antagonist effect; type: biochemical; conditions: 10 μmol/L; obtained at CEREP (Blanco et al. 2016c)
T3 construct: CEREP (contract laboratory that ran the assay)
T3 sequence (P21731 1-343): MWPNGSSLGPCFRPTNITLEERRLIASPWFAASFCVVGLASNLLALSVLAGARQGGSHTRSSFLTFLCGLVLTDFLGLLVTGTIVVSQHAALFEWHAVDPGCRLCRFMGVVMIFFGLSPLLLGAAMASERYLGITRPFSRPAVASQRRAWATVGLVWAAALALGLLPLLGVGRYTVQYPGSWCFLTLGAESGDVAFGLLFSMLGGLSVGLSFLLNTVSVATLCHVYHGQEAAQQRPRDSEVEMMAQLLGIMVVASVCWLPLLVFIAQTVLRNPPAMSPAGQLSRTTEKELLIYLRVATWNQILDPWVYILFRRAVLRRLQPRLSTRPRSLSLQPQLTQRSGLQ
Excerpt: as §2

[3] = target: T4, TP (TXA2/PGH2) (h); agonist effect (Homo sapiens, UniProt P21731); experiment: Off-target activity (CEREP), TP agonist effect; type: biochemical; conditions: 10 μmol/L; obtained at CEREP (Blanco et al. 2016c)
T4 construct: CEREP (contract laboratory that ran the assay)
T4 sequence (P21731 1-343): T3 sequence (P21731 1-343)
Excerpt: as §2

[4] = target: T5, IP (PGI2) (h), agonist radioligand (Homo sapiens, UniProt P43119); experiment: Off-target activity (CEREP), IP; type: binding; conditions: 10 μmol/L; obtained at CEREP (Blanco et al. 2016c); read-out: % Inh IP (PGI2) (h), agonist radioligand
T5 construct: CEREP (contract laboratory that ran the assay)
Excerpt: as §2

[5] = target: T6, FP(h); agonist radioligand (Homo sapiens, UniProt P43088); experiment: Off-target activity (CEREP), FP; type: binding; conditions: 10 μmol/L; obtained at CEREP (Blanco et al. 2016c)
T6 construct: CEREP (contract laboratory that ran the assay)
Excerpt: as §2

[6] = system: male Lewis rats, adjuvant induced arthritis; experiment: AIA model of inflammation (paw swelling); type: in vivo; conditions: rat AIA; all 3 doses tested (1, 3, and 10 mg/kg) oral once daily 4 days; P < 0.05 by Dunnett's test
Experimental: as §1
On Day 0, paw widths of both right and left paws were measured between the lateral and dorsal surfaces using calipers, and a mean paw thickness for each rat was calculated by averaging these measurements. Rats were then inoculated intradermally with 0.25 mg of adjuvant (M. Tuberculosis H37 RA from Difco) in 100 μL of mineral oil at the base of the tail to induce adjuvant disease. Eleven days post inoculation paw widths of both right and left paws were measured again, and the percent change from the Day 0 reading was calculated. […] On the fifth day after dosing started (day 15 post adjuvant injection) the rats were euthanized without further dosing and paw width measured again. The percent increase in mean paw thickness from day 11 to day 15 was then calculated as a measure of paw swelling which is indicative of the amount of inflammation in the paws measured. […]

[7] = system: male Lewis rats, MIA injected knee; parameters: method as in Blanco et al. 2016b; conditions: results published previously, ref Blanco et al. 2016b; cited from earlier work

T6 sequence (P43088 whole entry): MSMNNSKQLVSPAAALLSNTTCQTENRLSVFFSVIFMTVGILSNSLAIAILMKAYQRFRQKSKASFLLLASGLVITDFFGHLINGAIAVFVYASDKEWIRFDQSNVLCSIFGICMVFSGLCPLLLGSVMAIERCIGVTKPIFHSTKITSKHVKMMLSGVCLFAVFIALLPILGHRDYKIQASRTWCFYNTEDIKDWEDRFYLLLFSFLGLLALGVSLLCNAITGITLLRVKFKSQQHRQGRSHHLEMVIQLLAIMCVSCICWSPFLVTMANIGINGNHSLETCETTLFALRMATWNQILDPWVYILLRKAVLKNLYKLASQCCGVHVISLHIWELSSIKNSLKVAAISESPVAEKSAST
T5 sequence (P43119 whole entry): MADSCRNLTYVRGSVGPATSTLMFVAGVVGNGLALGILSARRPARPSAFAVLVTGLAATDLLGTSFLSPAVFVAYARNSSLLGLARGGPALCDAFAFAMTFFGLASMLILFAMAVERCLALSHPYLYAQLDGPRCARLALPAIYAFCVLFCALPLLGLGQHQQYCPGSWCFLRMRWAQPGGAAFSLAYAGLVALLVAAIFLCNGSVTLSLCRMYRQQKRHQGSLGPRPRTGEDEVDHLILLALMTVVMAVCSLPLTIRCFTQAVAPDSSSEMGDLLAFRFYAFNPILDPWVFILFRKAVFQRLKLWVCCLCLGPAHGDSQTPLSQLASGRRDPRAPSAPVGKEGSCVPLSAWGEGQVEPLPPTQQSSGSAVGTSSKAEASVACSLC
T2 sequence (P23219 24-599): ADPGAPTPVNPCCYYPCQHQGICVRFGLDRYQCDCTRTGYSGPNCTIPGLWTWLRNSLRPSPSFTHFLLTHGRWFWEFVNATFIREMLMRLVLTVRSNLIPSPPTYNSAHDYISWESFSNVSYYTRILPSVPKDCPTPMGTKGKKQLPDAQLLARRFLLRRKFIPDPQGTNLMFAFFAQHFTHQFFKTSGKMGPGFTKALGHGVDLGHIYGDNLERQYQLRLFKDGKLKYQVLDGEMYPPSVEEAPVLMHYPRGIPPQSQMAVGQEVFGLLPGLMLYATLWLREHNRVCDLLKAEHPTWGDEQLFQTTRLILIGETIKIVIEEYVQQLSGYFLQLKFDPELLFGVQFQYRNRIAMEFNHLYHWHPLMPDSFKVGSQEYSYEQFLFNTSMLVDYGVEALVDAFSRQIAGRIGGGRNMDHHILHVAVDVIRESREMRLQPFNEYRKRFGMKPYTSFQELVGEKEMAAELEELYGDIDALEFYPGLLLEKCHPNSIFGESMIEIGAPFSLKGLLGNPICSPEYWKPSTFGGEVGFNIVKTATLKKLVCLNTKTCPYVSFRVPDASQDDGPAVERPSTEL

Cc1ccc(-c2cccc(CO)c2)nc1C(=O)Nc1c(C)ccc(C(=O)O)c1C [Compound 3]
ankle histology, nearly all parameters and summed scores ([1]; 10 and 30 mg/kg oral once daily for seventeen days): significant reductions
knee joint histopathology (representative photomicrograph) ([1]; Fig. 10 bottom panel, prednisolone 10 mg/kg, compound 3 dose not given): minimal inflammation (S) and cartilage damage (large arrow), very minimal pannus (small arrow) and bone formation (P) not visible at this magnification
ankle joint histopathology (representative photomicrograph) ([1]; Fig. 10 top panel, prednisolone 10 mg/kg, compound 3 dose not given): moderate inflammation (S) and cartilage damage (large arrow), mild pannus (small arrow) and mild periosteal bone formation
ankle thickness ([1]; all three doses (3, 10, and 30 mg/kg) oral once daily, data not shown): significant reduction

C[C@H](NC(=O)[C@H]1CCCCN1CCOc1ccccc1)c1ccc(C(=O)O)cc1 [Compound 2]
inhibition at 10 µM (COX2 (h)): -17%
inhibition at 10 µM (COXl (h)): -24%
% Inh TP (TXA2/PGH2) (h); antagonist effect [2]: −12.00%
% Inh TP (TXA2/PGH2) (h); agonist effect [3]: −2.00%
inhibition at 10 µM [4]: 9%
% Inh FP(h); agonist radioligand [5]: −9.00%
increases in paw inflammation (swelling) compared to vehicle [6]: significantly inhibited

Cc1ccc(N2CCC(O)CC2)nc1C(=O)Nc1c(C)cc(C(=O)O)cc1C [Compound 1]
inhibition at 10 µM (COX2 (h)): -10%
% Inh TP (TXA2/PGH2) (h); antagonist effect [2]: −12.00%
% Inh TP (TXA2/PGH2) (h); agonist effect [3]: −4.00%
inhibition at 10 µM [4]: -4%
% Inh FP(h); agonist radioligand [5]: −2.00%
efficacy in rat MIA model of pain [7]: effective
